The values below are quoted from earlier work in US20260216324A1, “QS-21 COMPOSITIONS AND PROCESSES FOR PRODUCING THE SAME AND USES THEREFOR” (priority 2022, published 2026).

For data set [1] the following is noted: U.S. Pat. No. 5,583,112 (Example 11), isomers derived from bark.
The conditions of data set [2]: U.S. Pat. No. 5,583,112 (Example 11), isomers derived from bark. The source holds these as a separate data set.
The conditions of data set [3]: prior art; saponins purified from Quillaja saponaria bark extract.

On to `CC[C@H](C)[C@H](C[C@H](O)CC(=O)O[C@@H]1[C@H](O)[C@@H](O[C@@H]2O[C@@H](C)[C@H](O[C@@H]3OC[C@@H](O)[C@H](O[C@@H]4OC[C@](O)(CO)[C@H]4O)[C@H]3O)[C@@H](O)[C@H]2O)[C@H](OC(=O)[C@]23CCC(C)(C)C[C@H]2C2=CC[C@@H]4[C@@]5(C)CC[C@H](O[C@@H]6O[C@H](C(=O)O)[C@@H](O)[C@H](O[C@@H]7OC[C@@H](O)[C@H](O)[C@H]7O)[C@H]6O[C@@H]6O[C@H](CO)[C@H](O)[C@H](O)[C@H]6O)[C@@](C)(C=O)[C@@H]5CC[C@@]4(C)[C@]2(C)C[C@H]3O)O[C@@H]1C)OC(=O)C[C@@H](O)C[C@H](O[C@@H]1O[C@@H](CO)[C@H](O)[C@H]1O)[C@@H](C)CC` (single isomer, unassigned) [purified apiose isomer], for which the “adjuvanticity compared to standard 65:35 QS-21” value in data set [1] is “comparable in both adjuvanticity and toxicity to the standard 65:35 (apiose:xylose ratio) QS-21”. Further, the “toxicity compared to standard 65:35 QS-21” value in data set [2] is “comparable in both adjuvanticity and toxicity to the standard 65:35 (apiose:xylose ratio) QS-21”.

As to `CC[C@H](C)[C@H](C[C@H](O)CC(=O)O[C@@H]1[C@H](O)[C@@H](O[C@@H]2O[C@@H](C)[C@H](O[C@@H]3OC[C@@H](O)[C@H](O[C@@H]4OC[C@@H](O)[C@H](O)[C@H]4O)[C@H]3O)[C@@H](O)[C@H]2O)[C@H](OC(=O)[C@]23CCC(C)(C)C[C@H]2C2=CC[C@@H]4[C@@]5(C)CC[C@H](O[C@@H]6O[C@H](C(=O)O)[C@@H](O)[C@H](O[C@@H]7OC[C@@H](O)[C@H](O)[C@H]7O)[C@H]6O[C@@H]6O[C@H](CO)[C@H](O)[C@H](O)[C@H]6O)[C@@](C)(C=O)[C@@H]5CC[C@@]4(C)[C@]2(C)C[C@H]3O)O[C@@H]1C)OC(=O)C[C@@H](O)C[C@H](O[C@@H]1O[C@@H](CO)[C@H](O)[C@H]1O)[C@@H](C)CC` (single isomer, unassigned) [purified xylose isomer], in data set [1], the “adjuvanticity compared to standard 65:35 QS-21” value is “comparable in both adjuvanticity and toxicity to the standard 65:35 (apiose:xylose ratio) QS-21”. In addition, in data set [2], the “toxicity compared to standard 65:35 QS-21” value is “comparable in both adjuvanticity and toxicity to the standard 65:35 (apiose:xylose ratio) QS-21”.

For QS-17, the adjuvant activity result in data set [3] is listed as “adjuvant active”.

As for QS-18, the adjuvant activity entry in data set [3] is recorded as “adjuvant active”.
